Values after ≈ are worked out from the molar mass of the structure shown.
Columns and labels:
Type in all cases: in vivo
[1] = test system: Eurasian watermilfoil; test: Efficacy of fluroxypyr herbicide on Eurasian watermilfoil under mesocosm conditions (Example 1); settings: 24 h exposure
Text: Materials and Methods: Eurasian watermilfoil was obtained from cultures. Two apical tips approximately 15 cm long were planted into each of 108, plastic containers. The containers were filled with Black Kow potting soil and amended with 2 g/L Osmocote fertilizer 19-6-12. Four containers of potted Eurasian watermilfoil were placed into each of 27 mesocosm tanks. Mesocosm tanks were filled to a volume of 276 L (48 cm depth) and plants allowed to grow approximately 2-3 weeks prior to herbicide treatments or until plants were at or near the water surface. Pre-treatment biomass was harvested from an extra mesocosm tank set up with potted Eurasian watermilfoil for this purpose. Biomass was harvested by collecting aboveground biomass of plants in the tank. Plant material were dried at 70 C for at least 48 h and weighed to assess biomass.
After pre-treatment data collection, concentrated liquid herbicides were applied as the formulations and rates outlined in Table 1. An untreated reference was also included for comparison purposes. All herbicide applications were made using a 24 h exposure and replicated 3 times. After the exposure time was reached, each mesocosm tank was drained and refilled with fresh water to remove any herbicide residue remaining in the water column.
Each week, tanks were rated for percent control on a 0-100% scale (0%=no control; 100%=complete plant mortality). Four weeks after treatment (WAT), living plants were harvested, sorted to aboveground biomass, dried, and weighed for biomass determination. Differences between treatments were analyzed using an ANOVA test with means separated using a Fisher's Protected LSD test. Fluroxypyr data were fitted to an exponential decay regression model in order to estimate the EC50 value for fluroxypyr use on Eurasian watermilfoil.

[2] = test system: Eurasian watermilfoil; test: Fluroxypyr potassium salt formulations vs ester on Eurasian watermilfoil under mesocosm conditions (Example 4); settings: 200 ug/L, 24 h exposure, 4 WAT
Experimental: Eurasian watermilfoil was obtained from cultures. Two apical tips approximately 15 cm long were planted into each of 204, plastic containers (940 mL). The containers were filled with potting soil and amended with 2 g/L/soil Osmocote® fertilizer 19-6-12. Four containers of potted Eurasian watermilfoil were placed into each of 51 mesocosm tanks. Tanks were filled to a volume of 257 L and plants allowed to grow approximately 2-3 weeks prior to herbicide treatments, or until plants were at or near the water surface. Pre-treatment biomass was harvested from three tanks set up with pots for this purpose. Biomass was harvested by collecting aboveground biomass of plants from all of the pots in each of the pretreatment tanks. Plant material was placed into individually labeled paper bags, dried in a force air oven at 50 C for at least 48 h, and then weighed to assess biomass,
After pre-treatment data collection, liquid herbicides were applied as a concentrated aqueous formulation using the rates and products outlined in Table 6. […]
Four weeks after treatment (WAT), living plants were, harvested, sorted to aboveground biomass (if any), dried in a forced air oven at 50 C for at least 48 h, and weighed for biomass determination. Differences between treatments were analyzed using ANOVA with treatment means separated using a Fisher's Protected LSD test at a p≤0.05 significance level.

[3] = test system: sago pondweed (Stuckenia pectinata); test: Native plant selectivity screening in aquaria, sago pondweed (Example 6); settings: 50-3200 ug/L
Experimental: Materials and Methods: The study was conducted in an indoor aquaria facility. Elodea (Elodea canadensis) was obtained from cultures. Two apical tips approximately 10 cm long were planted into each of 48, plastic containers (16 oz. plastic cups). The containers were filled with potting soil and amended with 2 g/L Osmocote® fertilizer 19-6-12. A layer of sand was placed on top of the sediment in each container to prevent sediment re-suspension in the aquaria. Two containers of potted elodea were placed into each of 24 aquaria measuring 11.5 in×11.5 in×24 in. Additionally, sago pondweed (Stuckenia pectinata) tubers were obtained. The tubers were floated in shallow containers filled with water until new sprouts began to grow.
Once sprouted, two tubers were planted into 16 oz containers in a similar fashion as elodea. Two containers of potted sago pondweed were placed into each of the 24 aquaria, so that each aquarium had 4 potted plants (2 pots of each species). […]
At four weeks after treatment (WAT), plants were, harvested, sorted to aboveground biomass, dried in a forced air oven at 50 C for at least 48 h, and weighed for biomass determination (g/DW/aquaria). Differences between treatments were analyzed using an ANOVA, and if treatment differences were detected; means were separated using a Tukey's All-Pairwise comparison test. […]

CCCCCCC(C)OC(=O)COc1nc(F)c(Cl)c(N)c1Cl (stereo not shown) [Fluroxypyr ester, [(4-amino-3,5-dichloro-6-fluoro-2-pyridinyl)oxy]acetic acid, 1-methylheptyl ester]
Visual control ratings of Eurasian watermilfoil ([1]; 50 ug/L, 1 WAT): 30%
Visual control ratings of Eurasian watermilfoil ([1]; 50 ug/L, 2 WAT): 60%
Visual control ratings of Eurasian watermilfoil ([1]; 50 ug/L, 3 WAT): 50%
Visual control ratings of Eurasian watermilfoil ([1]; 50 ug/L, 4 WAT): 45%
biomass reduction of Eurasian watermilfoil ([1]; 50 ug/L, 4 WAT): 76%
Visual control ratings of Eurasian watermilfoil ([1]; 100 ug/L, 1 WAT): 60%
Visual control ratings of Eurasian watermilfoil ([1]; 100 ug/L, 2 WAT): 90%
Visual control ratings of Eurasian watermilfoil ([1]; 100 ug/L, 3 WAT): 90%
Visual control ratings of Eurasian watermilfoil ([1]; 100 ug/L, 4 WAT): 95%
biomass reduction of Eurasian watermilfoil ([1]; 100 ug/L, 4 WAT): 99%
Visual control ratings of Eurasian watermilfoil ([1]; 200 ug/L, 1 WAT): 60%
Visual control ratings of Eurasian watermilfoil ([1]; 200 ug/L, 2 WAT): 100%
Visual control ratings of Eurasian watermilfoil ([1]; 200 ug/L, 3 WAT): 100%
Visual control ratings of Eurasian watermilfoil ([1]; 200 ug/L, 4 WAT): 100%
Visual control ratings of Eurasian watermilfoil ([1]; 400 ug/L, 1 WAT): 70%
Visual control ratings of Eurasian watermilfoil ([1]; 400 ug/L, 2 WAT): 100%
Visual control ratings of Eurasian watermilfoil ([1]; 400 ug/L, 3 WAT): 100%
Visual control ratings of Eurasian watermilfoil ([1]; 400 ug/L, 4 WAT): 100%
Visual control ratings of Eurasian watermilfoil ([1]; 800 ug/L, 1 WAT): 70%
Visual control ratings of Eurasian watermilfoil ([1]; 800 ug/L, 2 WAT): 100%
Visual control ratings of Eurasian watermilfoil ([1]; 800 ug/L, 3 WAT): 100%
Visual control ratings of Eurasian watermilfoil ([1]; 800 ug/L, 4 WAT): 100%
Visual control ratings of Eurasian watermilfoil ([1]; 1600 ug/L, 1 WAT): 80%
Visual control ratings of Eurasian watermilfoil ([1]; 1600 ug/L, 2 WAT): 100%
Visual control ratings of Eurasian watermilfoil ([1]; 1600 ug/L, 3 WAT): 100%
Visual control ratings of Eurasian watermilfoil ([1]; 1600 ug/L, 4 WAT): 100%
Visual control ratings of Eurasian watermilfoil ([1]; 3200 ug/L, 1 WAT): 80%
Visual control ratings of Eurasian watermilfoil ([1]; 3200 ug/L, 2 WAT): 100%
Visual control ratings of Eurasian watermilfoil ([1]; 3200 ug/L, 3 WAT): 100%
Visual control ratings of Eurasian watermilfoil ([1]; 3200 ug/L, 4 WAT): 100%
EC50 ([1]; 4 WAT, mesocosm, read-out: EC50 for Eurasian watermilfoil (biomass, exponential decay regression model)): 8.8 ng/mL (≈ 0.024 µM)
Eurasian watermilfoil biomass reduction [2]: 98%
adverse effects on sago pondweed ([3]; four weeks of static exposure): did not exhibit any adverse effects
visible herbicide symptoms on sago pondweed ([3]; throughout the study, static exposure): no visible herbicide symptoms
